Measured values reported in article PMC11748363, “Antimicrobial and Antiproliferative Properties of 2‐Phenyl‐N‐(Pyridin‐2‐yl)acetamides” (Chemical Biology & Drug Design, 2025).
Like-named read-outs stand apart in the source and are kept apart here.

Tests used:
[1] = tested on: Mycobacterium tuberculosis H37Ra; test: Antimycobacterial microdilution broth MIC (resazurin), Mtb H37Ra; type: cell-based; details: for MIC: Mycobacterium tuberculosis, H37RA, read-out: MIC Mtb H37Ra; for SI (selectivity index): SI = HepG2 IC50 (μM)/MIC MtbH37Ra (μM), calculated for compounds with MIC ≤ 31.25 μg/mL
[2] = tested on: Mycolicibacterium smegmatis DSM 43465; test: Antimycobacterial microdilution broth MIC (resazurin), M. smegmatis; type: cell-based; details: DSM43465, read-out: MIC M. smegmatis
[3] = tested on: Mycolicibacterium aurum DSM 43999; test: Antimycobacterial microdilution broth MIC (resazurin), M. aurum; type: cell-based; details: DSM43999, read-out: MIC M. aurum
[4] = tested on: HepG2 cell line; test: Cytotoxicity CellTiter 96, HepG2; type: cell-based, human; details: Homo sapiens, HepG2, 24 h, 24 h incubation; ^c compound precipitated in the testing medium; ^d over the limit of tested concentrations
[5] = tested on: Staphylococcus aureus CCM 4223, ATCC 29213; test: Antibacterial microdilution broth MIC, SA; type: cell-based; details: Staphylococcus aureus
[6] = tested on: Staphylococcus aureus subsp. aureus CCM 4750, ATCC 43300 (MRSA); test: Antibacterial microdilution broth MIC, MRSA; type: cell-based; details: Staphylococcus aureus
[7] = tested on: Staphylococcus epidermidis CCM 4418, ATCC 12228; test: Antibacterial microdilution broth MIC, SE; type: cell-based
[8] = tested on: Enterococcus faecalis CCM 4224, ATCC 29212; test: Antibacterial microdilution broth MIC, EF; type: cell-based
[9] = tested on: Escherichia coli CCM 3954, ATCC 25922; test: Antibacterial microdilution broth MIC, EC; type: cell-based
[10] = tested on: Acinetobacter baumannii DSM 30007, ATCC 19606; test: Antibacterial microdilution broth MIC, ACI; type: cell-based
[11] = tested on: Pseudomonas aeruginosa CCM 3955, ATCC 27853; test: Antibacterial microdilution broth MIC, PA; type: cell-based
[12] = tested on: Candida albicans CCM 8320, ATCC 24433; test: Antifungal microdilution broth MIC, CA
[13] = tested on: Candida krusei CCM 8271, ATCC 6258; test: Antifungal microdilution broth MIC, CK; details: Pichia kudriavzevii
[14] = tested on: Candida parapsilosis CCM 8260, ATCC 22019; test: Antifungal microdilution broth MIC, CP; details: Lodderomyces parapsilosis
[15] = tested on: Candida tropicalis CCM 8264, ATCC 750; test: Antifungal microdilution broth MIC, CT
[16] = tested on: Aspergillus fumigatus ATCC 204305; test: Antifungal microdilution broth MIC, AF
[17] = tested on: Lichtheimia corymbifera CCM 8077; test: Antifungal microdilution broth MIC, LC
[18] = tested on: Trichophyton interdigitale CCM 8377, ATCC 9533; test: Antifungal microdilution broth MIC, TI; details: Trichophyton interdigitale
[19] = tested on: Aspergillus flavus CCM 8363; test: Antifungal microdilution broth MIC, AFla
[20] = tested on: Klebsiella pneumoniae CCM 4415, ATCC 10031; test: Antibacterial microdilution broth MIC, KP
[21] = ATCC204305, 24 h, read-out: MIC AF 24h
[22] = ATCC204305, 48 h, read-out: MIC AF 48h
[23] = CCM8077, 24 h, read-out: MIC LC 24h
[24] = CCM8077, 48 h, read-out: MIC LC 48h
[25] = CCM8363, 24 h, read-out: MIC AFla 24h
[26] = CCM8363, 48 h, read-out: MIC AFla 48h

O=C(Cc1ccccc1)Nc1ccc(Cl)cn1 [Compound 2]
500 µg/mL: MIC [2] | MIC [3]
15.6 µg/mL: MIC [1]
> 1.6: SI (selectivity index) [1]
> 100 µM: IC50 [4]
> 500 µM: MIC ([5]; 24 h, read-out: MIC SA 24h) | MIC ([5]; 48 h, read-out: MIC SA 48h) | MIC ([6]; 24 h, read-out: MIC MRSA 24h) | MIC ([6]; 48 h, read-out: MIC MRSA 48h) | MIC ([7]; 24 h, read-out: MIC SE 24h) | MIC ([7]; 48 h, read-out: MIC SE 48h) | MIC ([8]; 24 h, read-out: MIC EF 24h) | MIC ([8]; 48 h, read-out: MIC EF 48h) | MIC ([9]; 24 h, read-out: MIC EC 24h) | MIC ([9]; 48 h, read-out: MIC EC 48h) | MIC ([10]; 24 h, read-out: MIC ACI 24h) | MIC ([10]; 48 h, read-out: MIC ACI 48h) | MIC ([11]; 24 h, read-out: MIC PA 24h) | MIC ([11]; 48 h, read-out: MIC PA 48h) | MIC ([12]; 24 h, read-out: MIC CA 24h) | MIC ([12]; 48 h, read-out: MIC CA 48h) | MIC ([13]; 24 h, read-out: MIC CK 24h) | MIC ([13]; 48 h, read-out: MIC CK 48h) | MIC ([14]; 24 h, read-out: MIC CP 24h) | MIC ([14]; 48 h, read-out: MIC CP 48h) | MIC ([15]; 24 h, read-out: MIC CT 24h) | MIC ([15]; 48 h, read-out: MIC CT 48h) | MIC [16, 21] | MIC [16, 22] | MIC [17, 23] | MIC [17, 24] | MIC ([18]; 72 h, read-out: MIC TI 72h) | MIC ([18]; 120 h, read-out: MIC TI 120h) | MIC [19, 25] | MIC [19, 26]
> 500 µmol/L: MIC KP 24h [20] | MIC KP 48h [20]
63.3 µM: MIC ([1]; Calculated from MIC (μg/mL))

O=C(Cc1ccccc1)Nc1cccc(Cl)n1 [Compound 3]
> 500 µM: MIC ([6]; 24 h, read-out: MIC MRSA 24h) | MIC ([6]; 48 h, read-out: MIC MRSA 48h) | MIC ([7]; 24 h, read-out: MIC SE 24h) | MIC ([7]; 48 h, read-out: MIC SE 48h) | MIC ([8]; 24 h, read-out: MIC EF 24h) | MIC ([8]; 48 h, read-out: MIC EF 48h) | MIC ([9]; 24 h, read-out: MIC EC 24h) | MIC ([9]; 48 h, read-out: MIC EC 48h) | MIC ([10]; 24 h, read-out: MIC ACI 24h) | MIC ([10]; 48 h, read-out: MIC ACI 48h) | MIC ([11]; 24 h, read-out: MIC PA 24h) | MIC ([11]; 48 h, read-out: MIC PA 48h) | MIC ([12]; 24 h, read-out: MIC CA 24h) | MIC ([12]; 48 h, read-out: MIC CA 48h) | MIC ([14]; 48 h, read-out: MIC CP 48h) | MIC ([15]; 24 h, read-out: MIC CT 24h) | MIC ([15]; 48 h, read-out: MIC CT 48h) | MIC [16, 21] | MIC [16, 22] | MIC [17, 23] | MIC [17, 24] | MIC [19, 25] | MIC [19, 26]
62.5 µg/mL: MIC [3]
> 500 µmol/L: MIC KP 24h [20] | MIC KP 48h [20]
433 µM: IC50 [4]
500 µM: MIC ([5]; 24 h, read-out: MIC SA 24h) | MIC ([5]; 48 h, read-out: MIC SA 48h) | MIC ([13]; 48 h, read-out: MIC CK 48h) | MIC ([14]; 24 h, read-out: MIC CP 24h)
3.42: SI (selectivity index) [1]
15.6 µg/mL: MIC [2]
125 µM: MIC ([18]; 72 h, read-out: MIC TI 72h)
31.2 µg/mL: MIC [1]
250 µM: MIC ([13]; 24 h, read-out: MIC CK 24h) | MIC ([18]; 120 h, read-out: MIC TI 120h)
127 µM: MIC ([1]; Calculated from MIC (μg/mL))

COc1ccccc1CC(=O)Nc1ccccn1 [Compound 4]
> 500 µg/mL: MIC [2]
> 500 µmol/L: MIC KP 24h [20] | MIC KP 48h [20]
250 µg/mL: MIC [3]
516 µM: MIC ([1]; Calculated from MIC (μg/mL))
125 µg/mL: MIC [1]
> 500 µM: MIC ([5]; 24 h, read-out: MIC SA 24h) | MIC ([5]; 48 h, read-out: MIC SA 48h) | MIC ([6]; 24 h, read-out: MIC MRSA 24h) | MIC ([6]; 48 h, read-out: MIC MRSA 48h) | MIC ([7]; 24 h, read-out: MIC SE 24h) | MIC ([7]; 48 h, read-out: MIC SE 48h) | MIC ([8]; 24 h, read-out: MIC EF 24h) | MIC ([8]; 48 h, read-out: MIC EF 48h) | MIC ([9]; 24 h, read-out: MIC EC 24h) | MIC ([9]; 48 h, read-out: MIC EC 48h) | MIC ([10]; 24 h, read-out: MIC ACI 24h) | MIC ([10]; 48 h, read-out: MIC ACI 48h) | MIC ([11]; 24 h, read-out: MIC PA 24h) | MIC ([11]; 48 h, read-out: MIC PA 48h) | MIC ([12]; 24 h, read-out: MIC CA 24h) | MIC ([12]; 48 h, read-out: MIC CA 48h) | MIC ([13]; 24 h, read-out: MIC CK 24h) | MIC ([13]; 48 h, read-out: MIC CK 48h) | MIC ([14]; 24 h, read-out: MIC CP 24h) | MIC ([14]; 48 h, read-out: MIC CP 48h) | MIC ([15]; 24 h, read-out: MIC CT 24h) | MIC ([15]; 48 h, read-out: MIC CT 48h) | MIC [16, 21] | MIC [16, 22] | MIC [17, 23] | MIC [17, 24] | MIC ([18]; 72 h, read-out: MIC TI 72h) | MIC ([18]; 120 h, read-out: MIC TI 120h) | MIC [19, 25] | MIC [19, 26]
> 1000 µM: IC50 [4]
